Experimental data: paper PMC3763380, “Cellular-Level Versus Receptor-Level Response Threshold Hierarchies in T-Cell Activation” (Frontiers in Immunology, 2013)

Columns and labels:
ILA1 TCR = conditions: SPR, ILA1 TCR/pMHCI; not first reported here (footnote Table 1); ligands largely characterized previously; ref [27], [28]; cited from earlier work
Description: Table 1 Biophysical parameters. | column: On-rate (M^−1s^−1); Off-rate (s^−1); KD (M) || Figure 3 Functional variation at the cell population level in response to six different peptide ligands. The CTL clone ILA1 was stimulated for 6 h with peptide-pulsed C1R-A2 targets as indicated. Five functional read-outs (CD107a, MIP-1β, TNF-α, IL-2, and IFN-γ) were measured via flow cytometry. […] (A) Overview of functional profiles. Pie chart segments represent the fraction of cells expressing the number of functions indicated in the key. (B) Detailed analysis of functional profiles at [peptide] = 10^−6 M. Pie charts are extended with arc ...

CTL clone ILA1 = test: Bioassay: ILA1 CTL response to peptide-pulsed C1R-A2null targets (CD8-null HLA-A2), flow cytometry; format: cell-based; conditions: read-outs CD107a, MIP-1β, TNF-α, IL-2, IFN-γ
Description: Stable C1R transfectants expressing wild-type HLA-A2 (C1R-A2) or CD8-null HLA-A2 (C1R-A2null), the α3 domain of which contains the double mutation D227K/T228A that abrogates CD8 binding ([30]), were pulsed with peptide as indicated for 1 h at 37°C. For each condition, assays were set up simultaneously in 96-well plates using 4.5 × 10^5 C1R cells per well, thereby ensuring that all cellular parameters were consistent across ligand stimulations. Subsequently, brefeldin A (10 μg/ml; BD Biosciences) and monensin (0.7 μl/ml; BD Biosciences) were added together with a pre-titred concentration of the directly conjugated monoclonal antibody (mAb) αCD107a-FITC [BD Pharmingen; Ref. ([31])]. […]
Stained cell samples were acquired and recorded using a customized FACS Aria II flow cytometer (BD Biosciences) equipped for the simultaneous detection of 18 fluorescent parameters. […] The following gating tree was applied: (i) single cells were identified based on their light scatter properties; (ii) Boolean gating was carried out to exclude artifacts and fluorochrome aggregates; (iii) viable CD3^+CD19^− events were selected; (iv) outliers were eliminated in a side-scatter versus CD3 display; and (v) gates were set on cells positive for individual functional read-outs. […]

ILAKFLHWL [residues 540–548 (…) of the human telomerase reverse transcriptase protein]
Kd (ILA1 TCR): 32 µM
Off-rate (ILA1 TCR): 0.13 s⁻¹
On-rate (ILA1 TCR): 4,100 M^−1s^−1
responses at sufficiently high presentation levels (CTL clone ILA1): strongly attenuated but discernible responses
